In PubChem BioAssay AID489020 (Sanford-Burnham Center for Chemical Genomics, 2010):
Active and inactive are the calls of the source.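 The calls were made as follows: active = mean IC50, the dose halving TNF-driven NF-kB light signal, at or below a set limit; inactive = the rest.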

System: HEK-293T NF-kB-Luc, TNFa-induced, luminescence, 14 h
Assay: inhibitors of TNFa-induced NF-kB reporter, dose response, counter-screen for BCR/TCR NF-kB inhibitor project, cell-based, HEK-293T NF-kB-Luc, luminescence, hits from both screens (AID 489020);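 also: TNF-alpha stimulus at 0.1 ng/mL added with the seeded cells; selectivity counterscreen for hits from B- and T-cell receptor NF-kB screens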

SMILES	IC50
Cc1cc(N2CCN(c3nc4ccccc4s3)CC2)n2ncnc2n1	1260 nM
N#CC(c1cccc(Cl)c1)c1ccc2c(C(F)(F)F)cc(C(F)(F)F)nc2n1 (configuration not stated)	> 80000 nM (inactive)
COc1cc([N+](=O)[O-])cc(/C=N/NC(=O)c2ccc(NC(=O)c3ccc(C)cc3)cc2)c1O	22500 nM (inactive)
CC1CCc2c(sc(NC(=O)CSc3ncn[nH]3)c2C#N)C1 (configuration not stated)	610 nM
CCOc1ccc(/C=C2\SC(=S)N(CCC(=O)O)C2=O)cc1	34200 nM (inactive)
Cc1ccc(C(=O)Nc2cccc(C(F)(F)F)c2)cc1NC(=O)c1ccno1	> 80000 nM (inactive)
COc1ccc(-c2c[n+]3c(n2-c2ccc(C)cc2)CCCCC3)cc1	1620 nM
CC(C)Cc1cc(C(C)(C)C)ccc1OC(=S)N(C)C	> 80000 nM (inactive)
O=C(NCCc1ccccc1)c1ccc2c(c1)OCCCO2	900 nM
CC1(c2ccc3ccccc3c2)NC(=O)N(CC(=O)N2CCN(Cc3ccc(C#N)cc3)CC2)C1=O (configuration not stated)	210 nM
COc1ccc(C(=O)CN2C(=O)c3ccccc3S2(=O)=O)cc1	790 nM
Cc1cc2sc3ccc(C#CC4(O)CCCCC4)cc3c(=O)c2cc1C	< 160 nM
O=C(/C=C/c1ccccc1)Nc1cccc(C(=O)O)c1	2590 nM
CN=c1scc(-c2ccccc2F)n1/N=C/c1ccc[nH]1	1210 nM
O=C(NCCc1ccccc1F)c1ccc2c(c1)OCCO2	1420 nM
O=C(CCl)N1CCCC1c1ccc2c(c1)OCCO2 (configuration not stated)	9330 nM
CCOc1cc(S(=O)(=O)NCc2ccncc2)ccc1Cl	< 160 nM
CC(=O)OC(C)(C)/C=C/C(=O)[C@](C)(O)C1[C@H](O)C[C@@]2(C)C3CC=C4C(C[C@H](O)C(=O)C4(C)C)[C@]3(C)C(=O)C[C@]12C (some centres not stated)	11300 nM
c1ccc2sc(Sc3ncnc4sccc34)nc2c1	21400 nM (inactive)
Cc1ccc(Cn2ccsc2=NC(=O)CCl)cc1	15500 nM
Cn1nc(CC(=O)Nc2ccc3c(c2)OCCO3)c2ccccc2c1=O	600 nM

SMILES	IC50
CCOc1ccc(-n2c(-c3ccc(OC)cc3)c[n+]3c2CCCCC3)cc1	1060 nM
COc1cc(/C=N/NC(=S)Nc2cccc(C(=O)O)c2)ccc1O	23400 nM (inactive)
Cn1nc(CC(=O)Nc2ccc3c(c2)CCC3)c2ccccc2c1=O	220 nM
O=C(Nc1ccc([N+](=O)[O-])cc1)C(=O)Nc1cccc(C(=O)O)c1	4300 nM
N#Cc1c(NC(=O)CSc2ncn[nH]2)sc2c1CCCCC2	180 nM
C=C1C(=O)O[C@@H]2C[C@@H](C)[C@@H]3C=CC(=O)[C@@]3(C)[C@@H](O)[C@H]12	> 80000 nM (inactive)
COc1ccc(NS(=O)(=O)c2cccc(NC(=O)c3ccc(Cl)nc3)c2)cc1	310 nM
COCCn1c(C)cc(C2=NNC(=NC3CC3)SC2)c1C	330 nM
COc1ccccc1C(=O)Nc1nc2ccccc2[nH]1	800 nM
CCc1ccc(-c2nc(CS(=O)CC(=O)NCc3ccco3)c(C)o2)cc1 (configuration not stated)	57900 nM (inactive)
C[n+]1c(-c2ccccc2)c2cc(N)ccc2c2ccc(N)cc21	8250 nM
CCCCCc1ccc(OCCCC[n+]2cccc(C)c2)c(CCCCC)c1	6070 nM
N=c1c2c(-c3ccccc3)c(-c3ccccc3)n(Cc3ccccc3)c2ncn1CCCn1ccnc1	6970 nM
c1ccc(-c2ccc(-c3nc(-c4ccccn4)no3)cc2)cc1	1690 nM
COc1ccc(CN(C)c2ccc(S(=O)(=O)N3CCN(C)CC3)cc2[N+](=O)[O-])cc1OC	< 160 nM
COc1ccc(/C=C/c2cc(-c3ccc(C)cc3)o[n+]2C)cc1	6710 nM
COc1ccc(C[C@H]2NC[C@H](O)[C@H]2OC(C)=O)cc1	< 160 nM
COc1ccc(-c2cc3nc(C)n(N)c(=O)c3s2)cc1	870 nM
C[C@H](NC(=O)c1nc[nH]c1C(=O)N[C@@H](C)C(=O)OCc1ccccc1)C(=O)OCc1ccccc1	> 80000 nM (inactive)
C=CC(=O)Nc1ccc(Nc2nc(NC3CCC(N(C)C)CC3)nc3c2ncn3C(C)C)cc1 (configuration not stated)	410 nM
Cc1nn(-c2ccccc2)c(C)c1/C=N/NC(=O)c1cc(-c2cccs2)[nH]n1	3540 nM
